Results as given in patent US9193983B2, “Assays for mutagenesis detection” (The Regents of the University of California, priority 2007, dated 2015).

Columns and labels:
[1] = well-based DEL assay (MTS colorimetric, 96/384-well): genotoxicity and cytotoxicity; details: Saccharomyces cerevisiae; for viability: Cytotoxicity (% survival)
Description: (§1) The RS112 yeast DEL assay tester strain of Saccharomyces cerevisiae contains a plasmid with an internal fragment of the HIS3 gene integrated at the genomic HIS3 locus, yielding an integrative disruption of the HIS3 gene. This disruption results in two copies of the HIS3 gene, each copy having one terminal deletion. Recombination between the two his3 deletion alleles results in reversion to HIS3^+ and growth in the absence of histidine. This recombination event leads to a 6 kb DNA deletion comprising the integrated plasmid leading to deletion (DEL) events. The assay utilizing DEL events involves overnight growth of a single colony of the RS112 strain and subsequent subculture with the presence or absence of the chemical being tested for 17 hours at 30° C. under constant shaking. Yeast are then plated onto SC medium to determine the number of survivors (individual colonies are counted) and onto SC-HIS medium to score for DEL events. The traditional DEL assay is very powerful if one is testing a limited number of chemicals but becomes impractical for screening large numbers of chemicals and chemical libraries.
(§2) For 384-well plate format, 1 μl of yeast (˜100,000 cells) was pipetted into 8 microplate wells for each compound, four of which containing 70 μl SC media and four containing 70 μl SC-HIS media; each well was supplemented with 14 μl of MTS and 5 μl of compound. For 96-well plate format, the above was consistent except media, MTS, and compound volumes were 100 μl, 20 μl, and 7 μl, respectively. Control wells were treated with water in lieu of compound. The outermost columns of the 96-well plate and outer two columns of each 384-well plate were excluded from experimentation lest edge evaporative effects alter the data. Plates were incubated at 30° C. at normal atmosphere during which yeast were grown in the presence of the tested compound and 490 nm absorbance was measured 10-18 hr later using a Molecular Devices SpectraMax M5 microplate reader (Sunnyvale, Calif.).
(§3) Survival for a given compound treatment was quantified by averaging the absorbance across the four treated wells in SC media and dividing that by the average absorbance of control wells. DEL induction was quantified by dividing the absorbance of each SC-HIS well by the corresponding paired SC well. Thus for each compound done in quadruplicate, each plate contains a set of 4 different measurements of DEL induction. For each compound, ratio of the average DEL induction in treated versus control cultures was taken as the fold-increase in DEL events (HIS^+ growth). A Student's t-test was performed on the 4 measurements of DEL induction and the same measurements recorded from control wells to determine significance of the fold-increase. It should be noted that this value of fold-increase is analyzed statistically for significance and not absolute; thus two different chemicals may have the same fold-increase but varying levels of significance. In plots and tables, data from a single experiment performed in quadruplicate is presented; all experiments were repeated independently in at least 3 separate experiments in both 96 and 384-well plate formats.

[2] = system: S. cerevisiae strain RS112; assay: as above
Description: as §1, §2, §3

Saccharomyces cerevisiae = details: cited from earlier work
[3] = S. cerevisiae strain RS112 (diploid yeast cells)

CC[C@@]1(O)C(=O)OCc2c1cc1n(c2=O)Cc2cc3ccccc3nc2-1 [Camptothecin, camptothecin]
viability at 5 μM [1, 3]: 86.1% | viability at 15 μM [1, 3]: 93.1% | viability at 25 μM [1, 3]: 95.7% | viability at 40 μM [1, 3]: 85.6% | Cytotoxicity significance ([2]; 5 μM final in well): *** (*** (p < 0.005)) | DEL (fold increase) ([2]; 5 μM final in well): 1.28 fold | DEL significance ([2]; 5 μM final in well): ** (** (p < 0.01)) | Cytotoxicity significance ([2]; 15 μM final in well): * (* (p < 0.05)) | DEL (fold increase) ([2]; 15 μM final in well): 1.53 fold | DEL significance ([2]; 15 μM final in well): *** (*** (p < 0.005)) | Cytotoxicity significance ([2]; 25 μM final in well): * (* (p < 0.05)) | DEL (fold increase) ([2]; 25 μM final in well): 1.57 fold | DEL significance ([2]; 25 μM final in well): *** (*** (p < 0.005)) | Cytotoxicity significance ([2]; 40 μM final in well): *** (*** (p < 0.005)) | DEL (fold increase) ([2]; 40 μM final in well): 1.77 fold | DEL significance ([2]; 40 μM final in well): *** (*** (p < 0.005)) | cytotoxicity ([2]; each concentration 5-40 μM): various degrees of cytotoxicity | genotoxicity (growth in −HIS media) ([2]; each concentration 5-40 μM (1.7-13.9 μg/ml)): significant genotoxicity

O=P1(N(CCCl)CCCl)NCCCO1 (centres unmarked) [Cyclophosphamide, cyclophosphamide monohydrate]
viability at 50 μM [1]: 109% | viability at 100 μM [1]: 104% | viability at 200 μM [1]: 96.2% | DEL (fold increase) ([2]; 50 μM final in well): 0.77 fold | DEL significance ([2]; 50 μM final in well): ns (ns—not significant (p > 0.05)) | DEL (fold increase) ([2]; 100 μM final in well): 0.74 fold | DEL significance ([2]; 100 μM final in well): ns (ns—not significant (p > 0.05)) | Cytotoxicity significance ([2]; 200 μM final in well): ns (ns—not significant (p > 0.05)) | DEL (fold increase) ([2]; 200 μM final in well): 0.95 fold | DEL significance ([2]; 200 μM final in well): ns (ns—not significant (p > 0.05)) | DEL fold-increase ([2]; up to 200 μM): no DEL fold-increase

O=NN(CCCl)C(=O)NCCCl [Carmustine, carmustine]
viability ([1]; 10 μM final in well): 91.8% | viability ([1]; 30 μM final in well): 29.5% | viability ([1]; 50 μM final in well): 10.7% | cytotoxic effects [2]: more pronounced genotoxic and cytotoxic effects | DEL significance ([2]; 10 μM final in well): * (* (p < 0.05)) | DEL significance ([2]; 30 μM final in well): *** (*** (p < 0.005)) | DEL significance ([2]; 50 μM final in well): *** (*** (p < 0.005)) | DEL events (DNA deletions) induced by crosslinking agents ([2]; well-based DEL assay): significant increase in DEL events

c1ccccc1 [Benzene, benzene]
viability at 0.25 mg/ml [1]: 96% | viability at 0.4 mg/ml [1]: 83.7% | Cytotoxicity significance ([2]; 0.25 mg/ml final in well): ns (ns—not significant (p > 0.05)) | DEL (fold increase) ([2]; 0.25 mg/ml final in well): 1.77 fold | DEL significance ([2]; 0.25 mg/ml final in well): *** (*** (p < 0.005)) | Cytotoxicity significance ([2]; 0.40 mg/ml final in well): ** (** (p < 0.01)) | DEL (fold increase) ([2]; 0.40 mg/ml final in well): 2.31 fold | DEL significance ([2]; 0.40 mg/ml final in well): *** (*** (p < 0.005)) | DEL induction ([2]; 0.25 and 0.40 mg/ml): significant DEL induction

CC(=O)N[C@@H](CS)C(=O)O [NAC, N-acetylamine]
protection against HNO induced DNA deletions (Saccharomyces cerevisiae): protected
